Measurements as given in ChEMBL document CHEMBL1152129, “Quantitative structure-activity relationship and complex network approach to monoamine oxidase A and B inhibitors” (J Med Chem, 2008).

Tests used:
[1] = molecular target: T1, Amine oxidase [flavin-containing] B (Homo sapiens, UniProt P27338); assay: Inhibition of human recombinant MAOB at 1 mM by fluorimetric method; details: 1000 µM
T1 sequence (P27338 whole entry): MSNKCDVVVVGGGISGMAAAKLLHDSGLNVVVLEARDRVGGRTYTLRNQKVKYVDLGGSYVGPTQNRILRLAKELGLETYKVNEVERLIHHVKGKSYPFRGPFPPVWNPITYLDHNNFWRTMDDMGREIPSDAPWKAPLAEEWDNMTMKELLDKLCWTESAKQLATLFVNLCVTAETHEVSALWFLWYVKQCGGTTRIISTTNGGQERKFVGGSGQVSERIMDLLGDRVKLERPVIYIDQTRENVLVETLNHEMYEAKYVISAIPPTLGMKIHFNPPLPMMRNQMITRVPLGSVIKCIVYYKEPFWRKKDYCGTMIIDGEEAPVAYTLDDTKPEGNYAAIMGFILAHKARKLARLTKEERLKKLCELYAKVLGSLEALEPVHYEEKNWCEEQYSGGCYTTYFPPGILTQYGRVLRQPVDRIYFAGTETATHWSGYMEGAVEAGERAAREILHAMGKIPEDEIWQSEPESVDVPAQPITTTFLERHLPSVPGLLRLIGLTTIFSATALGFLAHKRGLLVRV

[2] = molecular target: T2, Amine oxidase [flavin-containing] A (Homo sapiens, UniProt P21397); assay: Inhibition of human liver MAOA
T2 sequence (P21397 whole entry): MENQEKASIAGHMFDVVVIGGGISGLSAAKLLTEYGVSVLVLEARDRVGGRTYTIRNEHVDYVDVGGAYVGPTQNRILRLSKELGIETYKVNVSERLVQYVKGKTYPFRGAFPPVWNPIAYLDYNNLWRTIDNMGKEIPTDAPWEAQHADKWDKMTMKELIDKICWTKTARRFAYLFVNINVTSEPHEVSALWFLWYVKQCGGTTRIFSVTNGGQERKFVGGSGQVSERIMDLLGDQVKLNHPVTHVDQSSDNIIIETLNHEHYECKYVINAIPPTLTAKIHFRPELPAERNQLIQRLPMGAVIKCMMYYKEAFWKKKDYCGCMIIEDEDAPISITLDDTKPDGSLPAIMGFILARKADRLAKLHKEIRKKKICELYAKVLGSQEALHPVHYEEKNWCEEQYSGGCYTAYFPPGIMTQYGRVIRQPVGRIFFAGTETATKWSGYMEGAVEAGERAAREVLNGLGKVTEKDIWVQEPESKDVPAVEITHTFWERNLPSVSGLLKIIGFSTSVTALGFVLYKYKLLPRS

[3] = molecular target: T1, Amine oxidase [flavin-containing] B; assay: Inhibition of human liver MAOB
[4] = molecular target: T2, Amine oxidase [flavin-containing] A; assay: Inhibition of human recombinant MAOA at 100 uM by fluorimetric method
[5] = molecular target: T1, Amine oxidase [flavin-containing] B
Description: Inhibition of human recombinant MAOB by fluorimetric method

Homo sapiens = organism: Homo sapiens; assay: Selectivity ratio of IC50 for human recombinant MAOA to IC50 for human recombinant MAOB
[6] = molecular target: T2, Amine oxidase [flavin-containing] A; assay: Inhibition of human recombinant MAOA by fluorimetric method
[7] = molecular target: T1, Amine oxidase [flavin-containing] B; assay: Inhibition of human recombinant MAOB at 100 uM by fluorimetric method

With `CCN(CC)CC(=O)Nc1c(C)cccc1C` [LIDOCAINE] the Activity [1] was “Not Active”.

`CC(C)(S)[C@@H](N)C(=O)O` [PENICILLAMINE] was tested, and the Activity [2] was “Not Active”, the Activity [3] was “Not Active” and the Activity [4] was “Not Active”.

Molecule `Cc1cc(=O)oc2cc(OC3CCCC3=O)ccc12` (stereo unspecified) has an IC50 [5] of 5.57 µM, a Ratio IC50 (Homo sapiens) of 0.0073 and an IC50 [6] of 0.0405 µM.

In the case of `CN(Cc1cnc2nc(N)nc(N)c2n1)c1ccc(C(=O)N[C@@H](CCC(=O)O)C(=O)O)cc1` [METHOTREXATE], the Activity [1] is reported as “Not Active”.

With `O=NN(CCCl)C(=O)NC[C@@H](O)[C@H](O)CN(N=O)C(=O)NCCCl` the Activity [1] was “Not Active”.

For `Cc1c(O)ccc2c3c(c(=O)oc12)CCCC3`, the Activity [7] was “Not Active”, the Ratio IC50 (Homo sapiens) was under 0.6 and the IC50 [6] was 60.1 µM.

`C=C(Br)COc1ccc2c3c(c(=O)oc2c1C)CCC3` was tested, and the IC50 [5] was 0.00118 µM, the Ratio IC50 (Homo sapiens) was 110 and the IC50 [6] was 0.13 µM.

For `O=C1CCCCC1Oc1ccc2ccc(=O)oc2c1` (stereo unspecified), the Activity [7] was “Not Active”, the Ratio IC50 (Homo sapiens) was under 0.43 and the IC50 [6] was 43 µM.

`COc1c2occc2cc2cc(N)c(=O)oc12` was tested, and the IC50 [5] was 16.5 µM, the Ratio IC50 (Homo sapiens) was 0.74 and the IC50 [6] was 12.2 µM.

With `CC(=O)COc1ccc2c(oc(=O)c3ccccc32)c1C` the IC50 [5] was 28.1 µM, the Ratio IC50 (Homo sapiens) was 0.091 and the IC50 [6] was 2.56 µM.

In the case of `COc1c(O)ccc2c3c(c(=O)oc12)CCC3`, the Activity [7] is reported as “Not Active”, the Ratio IC50 (Homo sapiens) is reported as under 0.63 and the IC50 [6] is reported as 63.5 µM.

With `NC(N)=N/N=C/c1ccc([N+](=O)[O-])o1` [FURAGUANIDINE] the Activity [7] was “Not Active” and the Activity [3] was “Not Active”.

With `CC(=O)[C@@]1(O)CC[C@H]2[C@@H]3C[C@H](C)C4=CC(=O)CC[C@]4(C)[C@H]3CC[C@@]21C` the Activity [1] was “Not Active”.

For `C1OC1CN1CCC(C2CCN(CC3CO3)CC2)CC1` (stereo unspecified) [EPIPROPIDINE], the Activity [1] was “Not Active”.

For `COc1c2ccc(=O)oc2cc2occ(C)c12`, the IC50 [5] was 260 µM, the Ratio IC50 (Homo sapiens) was 0.98 and the IC50 [6] was 255 µM.

With `Cc1cccc(C)c1NC(=O)C1CCCCN1C` (stereo unspecified) [MEPIVACAINE] the Activity [7] was “Not Active” and the Activity [3] was “Not Active”.

In the case of `O=c1[nH]c(=O)n([C@H]2C[C@H](O)[C@@H](CO)O2)cc1F` [FLOXURIDINE], the Activity [7] is reported as “Not Active” and the Activity [3] is reported as “Not Active”.

With `CCCOC1=C(N2CC2)C(=O)C(OCCC)=C(N2CC2)C1=O` [INPROQUONE] the Activity [1] was “Not Active”.

`CCCC(C)(COC(N)=O)COC(N)=O` [MEPROBAMATE] was tested, and the Activity [7] was “Not Active” and the Activity [3] was “Not Active”.

With `O=CN(O)CC(=O)O` [HADACIDIN] the Activity [1] was “Not Active”.

With `CN1C[C@H](C(=O)N[C@]2(C)O[C@@]3(O)[C@@H]4CCCN4C(=O)[C@H](Cc4ccccc4)N3C2=O)C=C2c3cccc4[nH]cc(c34)C[C@H]21` [ERGOTAMINE] the Activity [1] was “Not Active”.

With `O=NN(CCCl)C(=O)NC1CCCCC1` [LOMUSTINE] the Activity [7] was “Not Active” and the Activity [3] was “Not Active”.

With `O=C(NCCN1CCOCC1)c1ccc(Cl)cc1` [MOCLOBEMIDE] the Activity [1] was “Not Active”.

With `C[C@@H]1O[C@@H](O[C@H]2C[C@](O)(C(=O)CO)Cc3c(O)c4c(c(O)c32)C(=O)c2ccccc2C4=O)C[C@H](N)[C@@H]1O` [MEDORUBICIN] the Activity [1] was “Not Active”.

`CC(=O)COc1ccc2c3c(c(=O)oc2c1C)CCC3` gave an IC50 [5] of 0.165 µM, a Ratio IC50 (Homo sapiens) of 1.42 and an IC50 [6] of 0.235 µM.

With `O=c1oc2cc(O)ccc2c2c1CCC2` the Activity [7] was “Not Active”, the Ratio IC50 (Homo sapiens) was under 0.48 and the IC50 [6] was 48.2 µM.

`O=c1ccc2cc3c4c(oc3cc2o1)CC4` was tested, and the Activity [7] was “Not Active”, the Ratio IC50 (Homo sapiens) was under 0.58 and the IC50 [6] was 57.9 µM.

With `COc1c(OCC(C)=O)ccc2c3c(c(=O)oc12)CCC3` the IC50 [5] was 13 µM, the Ratio IC50 (Homo sapiens) was 0.0093 and the IC50 [6] was 0.121 µM.

For `C[C@H]1O[C@@H](O[C@H]2[C@@H](O)C[C@H](O[C@H]3[C@@H](O)C[C@H](O[C@H]4CC[C@@]5(C)[C@H](CC[C@@H]6[C@@H]5C[C@@H](O)[C@]5(C)[C@@H](C7=CC(=O)OC7)CC[C@]65O)C4)O[C@@H]3C)O[C@@H]2C)C[C@H](O)[C@@H]1O` [DIGOXIN], the Activity [2] was “Not Active”, the Activity [3] was “Not Active” and the Activity [4] was “Not Active”.

For `COC(F)(F)C(Cl)Cl` [METHOXYFLURANE], the Activity [1] was “Not Active”.

Work on `COc1c(OCC(C)=O)ccc2c1oc(=O)c1ccccc12` yielded an IC50 [5] of 9.36 µM, a Ratio IC50 (Homo sapiens) of 1.27 and an IC50 [6] of 11.9 µM.

`Cc1cc(=O)oc2c(C)c(OC3CCCCC3=O)ccc12` (stereo unspecified) showed an IC50 [5] of 3.87 µM, a Ratio IC50 (Homo sapiens) of 0.1 and an IC50 [6] of 0.4 µM.

`COc1c(OCC(C)=O)ccc2cc(NC(C)=O)c(=O)oc12` was tested, and the Activity [7] was “Not Active”, the Ratio IC50 (Homo sapiens) was under 0.53 and the IC50 [6] was 5.31 µM.

In the case of `N[C@@H](Cc1ccc(O)c(O)c1)C(=O)O` [LEVODOPA], the Activity [1] is reported as “Not Active”.

With `N=c1nc2n(cc1F)[C@@H]1O[C@H](CO)[C@@H](O)[C@@H]1O2` [FLUROCITABINE] the Activity [1] was “Not Active”.

With `C[C@H]1O[C@@H](O[C@H]2[C@@H](O)C[C@H](O[C@H]3[C@@H](O)C[C@H](O[C@H]4CC[C@@]5(C)[C@H](CC[C@@H]6[C@@H]5CC[C@]5(C)[C@@H](C7=CC(=O)OC7)CC[C@]65O)C4)O[C@@H]3C)O[C@@H]2C)C[C@H](O)[C@@H]1O` [DIGITOXIN] the Activity [2] was “Not Active”, the Activity [3] was “Not Active” and the Activity [4] was “Not Active”.

`CC1(C)O[C@@H]2C[C@H]3[C@@H]4C[C@H](F)C5=CC(=O)C=C[C@]5(C)[C@@]4(Cl)[C@@H](Cl)C[C@]3(C)[C@]2(C(=O)CO)O1` [FLUCLORONIDE] was tested, and the Activity [7] was “Not Active” and the Activity [3] was “Not Active”.

For `CS(=O)(=O)OC[C@@H]1O[C@H]1[C@@H]1O[C@H]1COS(C)(=O)=O`, the Activity [1] was “Not Active”.

With `O=[N+]([O-])c1ccc(/C=N/n2cnnc2)o1` [FURAZONAL] the Activity [7] was “Not Active” and the Activity [3] was “Not Active”.

Work on `Cc1cc(=O)oc2c(C)c3oc4c(c3cc12)CCC4` yielded an IC50 [5] of 73.2 µM, a Ratio IC50 (Homo sapiens) of 0.45 and an IC50 [6] of 32.8 µM.

In the case of `C=C1[C@@H](C)[C@H]2[C@H](Cc3ccccc3)NC(=O)[C@]23OC(=O)/C=C/[C@H](O)CCC[C@@H](C)C/C=C/[C@H]3[C@@H]1O` [CYTOCHALASIN B], the Activity [1] is reported as “Not Active”.

`Cc1cc(=O)oc2c(C)c(OC3CCCC3=O)ccc12` (stereo unspecified) showed an IC50 [5] of 10.6 µM, a Ratio IC50 (Homo sapiens) of 0.00067 and an IC50 [6] of 0.00716 µM.

With `CN(C)/N=N/c1[nH]cnc1C(N)=O` [DACARBAZINE] the Activity [1] was “Not Active” and the Activity [2] was “Not Active”.

In the case of `CC[C@H](c1ccc(OP(=O)(O)O)cc1)[C@@H](CC)c1ccc(OP(=O)(O)O)cc1` [HEXESTROL DIPHOSPHATE], the Activity [7] is reported as “Not Active” and the Activity [3] is reported as “Not Active”.

With `CCc1cc(C(N)=S)ccn1` [ETHIONAMIDE] the Activity [7] was “Not Active” and the Activity [3] was “Not Active”.

Molecule `C=C(Br)COc1ccc2c3c(c(=O)oc2c1C)CCCC3` has an IC50 [5] of 0.236 µM, a Ratio IC50 (Homo sapiens) of 2.94 and an IC50 [6] of 0.695 µM.

With `COC(=O)[C@H](Cc1cnc[nH]1)NC(=O)Cc1ccc(N(CCCl)CCCl)cc1` the Activity [7] was “Not Active” and the Activity [3] was “Not Active”.

In the case of `CC(=O)Nc1c(I)c(C(=O)N[C@H]2C(O)O[C@H](CO)[C@@H](O)[C@@H]2O)c(I)c(N(C)C(C)=O)c1I` (stereo partly specified) [METRIZAMIDE], the Activity [7] is reported as “Not Active” and the Activity [3] is reported as “Not Active”.

In the case of `NS(=O)(=O)c1cc(Cl)c(Cl)c(S(N)(=O)=O)c1` [DICHLORPHENAMIDE], the Activity [1] is reported as “Not Active”.

With `COc1c(OCC(C)=O)ccc2c3c(c(=O)oc12)CCCC3` the IC50 [5] was 12.1 µM, the Ratio IC50 (Homo sapiens) was 0.033 and the IC50 [6] was 0.396 µM.
